Article PMC12655819 (Pharmaceuticals, 2025)
Marks after values point to notes of the source that are not given here.

Experiments:
Type in all cases: in vivo, human
[1] = Pharmacokinetics from total plasma levels (tMPA, tMPAG), LC-MS/MS; conditions: total plasma level
Procedure: (§1) The AUC0–4, Tmax, and Cmax parameters were calculated using the R (version 4.5.1) package software (R Core Team, 2025), supported by RStudio (version 2025.05.1+513) from Posit PBC software (Boston, MA, USA). […] The vMPA and vMPAG capillary blood levels were corrected using formulas validated in our department (partially published by Kocur et al.) and expressed as estimated capillary plasma concentrations. […] Individual PK profiles for each patient included in the study are provided in the Supplementary File (Figures S4 and S5).
Briefly, 50 μL of plasma was diluted with 90 μL of deionized water, and 10 μL of IS (d3-MPA) was added. Next, 400 μL of the precipitation mixture (a 0.1 M aqueous zinc sulfate solution and acetonitrile, 50:50 (v/v)) was added. The sample was then shaken for 10 min at room temperature using an automatic rotary vortex (Ohaus, Parsippany, NJ, USA) and centrifuged for 10 min at 13,500× g at 4 °C thereafter. The supernatant was transferred into chromatographic vials and analyzed using LC-MS/MS. Sample processing was performed at the Department of Drug Chemistry, Pharmaceutical and Biomedical Analysis, Medical University of Warsaw, Poland.
(§2) From each patient (if they consented to all sampling types), four samples were collected simultaneously at all defined time points of the dynamic PK profile (0, 0.5, 1, 2, and 4 h after drug administration). Whole blood was collected using standard venipuncture by a phlebotomist into a K3-EDTA test tube (Sarstedt, Nümbrecht, Germany). Plasma for analytical determination was obtained by centrifuging a portion of the whole blood and stored at −40 °C until assay. At the same time, 10 µL capillary blood samples were collected from a finger prick using the Mitra™ device (VAMS samples were stored in light-protected aluminum zip bags with desiccant at room temperature).

[2] = Pharmacokinetics from plasma unbound levels in plasma ultrafiltrate (fMPA, fMPAG); conditions: free level in plasma ultrafiltrate
Procedure: as §1
Next, the sample was centrifuged at 3000× g for 5 min at ambient conditions, and the supernatant was transferred into a chromatographic vial. Sample processing was performed at the Department of Drug Chemistry, Pharmaceutical and Biomedical Analysis, Medical University of Warsaw, Poland.
as §2

[3] = Pharmacokinetics from liquid (wet) saliva collected with Salivette (sMPA, sMPAG)
Procedure: as §1
The concentrations of sMPA and sMPAG in saliva were determined using a previously described LC-MS/MS method. Briefly, 100 µL of saliva was used for analysis. […] Samples were vortexed and evaporated to dryness. The dry residues were reconstituted in 100 μL of a mobile phase consisting of a 1:4 (v/v) mixture of methanol and water, both of which contained 0.1% formic acid. After double centrifugation, the samples were analyzed using a Shimadzu Ultra-Performance Liquid Chromatography (UPLC) system (Shimadzu Co., Kyoto, Japan) coupled with a triple quadrupole mass spectrometer (LCMS-8030; Simadzu Co., Kyoto, Japan). The method was linear over the concentration range of 2–500 μg/L for both sMPA and sMPAG. This part of the work was carried out with the support of the Centre of Innovative Pharmaceutical Technology, Poznan University of Medical Sciences (Poznan, Poland).
(§3) Additionally, the unstimulated saliva samples were simultaneously collected using the Salivette® device (Sarstedt, Nümbrecht, Germany) and Mitra™ 20 µL microsampling tips (Neoteryx/Trajan, Torrance, CA, USA (all saliva samples simultaneously to plasma and capillary blood sampling: 0, 0.5, 1, 2, and 4 h after drug administration). Patients had not eaten for at least 30 min before saliva collection, and their mouths were rinsed with water. The study was conducted in accordance with the Declaration of Helsinki and the International Council for Harmonization Guideline for Good Clinical Practice. The protocol was approved by the Bioethics Committee of the Children’s Memorial Health Institute, Warsaw, Poland (approval No. 15/KBE/2023, with subsequent amendments). Written informed consent was obtained from all participants and their legal guardians.

[4] = Pharmacokinetics from dried saliva collected with Mitra VAMS (vsMPA, vsMPAG)
Procedure: as §1
Samples were sonicated (36 °C, 30 min), vortexed (15 min), and frozen (−20 °C, 15 min). After centrifugation (10 min, 25,155× g), 350 µL of supernatant was transferred to a total recovery borosilicate vial (Finneran, Vineland, NJ, USA) and evaporated to dryness under a stream of nitrogen (40 °C) using Ultravap® Levante (Porvair, Hampshire, Great Britain). The residue was reconstituted in 150 µL of mobile phase A, filtered in a Verex™ vial, and 5 µL was injected into the LC–MS/MS system. Analyses were performed at the Department of Drug Chemistry, Pharmaceutical and Biomedical Analysis, Medical University of Warsaw, Poland.
as §3

[5] = Pharmacokinetics from capillary blood collected with Mitra VAMS (vMPA, vMPAG)
Procedure: as §1
Subsequently, the tip (after at least 1 h of drying) was placed in an 1.5 mL Eppendorf-type test tube (Eppendorf AG, Hamburg, Germany) containing 150 μL of pure deionized water. Next, the test tube was shaken at room temperature for 1 h using the automatic rotary vortex. Subsequently, 10 μL of IS solution and 150 μL of the precipitation mixture were added. The sample was then processed as described in Section 4.3.4. Sample processing was carried out at the Department of Drug Chemistry, Pharmaceutical and Biomedical Analysis, Medical University of Warsaw, Poland [21].
as §2

[6] = human, 0 h (pre-dose), n = 20, mean ± SD, read-out: C0 concentration
[7] = human, 0.5 h post-dose, n = 20, mean ± SD, read-out: C0.5 concentration
[8] = human, 1 h post-dose, n = 20, mean ± SD, read-out: C1 concentration
[9] = human, 2 h post-dose, n = 20, mean ± SD, read-out: C2 concentration
[10] = human, 4 h post-dose, n = 20, mean ± SD, read-out: C4 concentration
[11] = normalized to MMF dose, n = 20, mean (range)

Compound `COc1c(C)c2c(c(O)c1C/C=C(\C)CCC(=O)O)C(=O)OC2` [MPA, Mycophenolic acid] has a Tmax ([1]; human, plasma, pediatric renal transplant recipients (n = 20) on MMF, mean (range), read-out: Tmax) of 30 to 60 min, a concentration at 0 h [1, 6] of 2150 ± 1620 ng/mL and a concentration at 0.5 h [1, 7] of 10700 ± 9560 ng/mL. For the same compound, the concentration at 1 h [1, 8] was 11400 ± 6810 ng/mL, the concentration at 2 h [1, 9] was 4680 ± 3410 ng/mL and the concentration at 4 h [1, 10] was 2230 ± 2390 ng/mL. The Cmax ([1]; human, pediatric renal transplant recipients (n = 20) on MMF (CellCept), steady state, 0–4 h post-dose, mean (range), read-out: Cmax) was 14400 ng/mL, the AUC(0-t) ([1]; human, pediatric renal transplant recipients (n = 20) on MMF, mean (range)) was 23.8 mg·h/L and the “AUC(0–4) Normalized to Drug Dose” value [1, 11] was 83.67 (22.44–447.22) ^d mg × h/mL × g. The Tmax ([1]; pediatric renal transplant recipients (n = 20) on MMF, mean (range), listed as tMPA) was 0.78 (0.50–1.00) h, the “AUC(0–4) Normalized to Drug Dose” value [2, 11] was 0.596 (0.042–1.577) ^d mg × h/mL × g and the concentration at 0 h ([2]; human, plasma ultrafiltrate (unbound level in EDTA plasma), 0 h (pre-dose), n = 20, mean ± SD, read-out: C0 concentration) was 22 ± 16 ng/mL. For the same compound, the concentration at 0.5 h ([2]; human, plasma ultrafiltrate (unbound level in EDTA plasma), 0.5 h post-dose, n = 20, mean ± SD, read-out: C0.5 concentration) was 104 ± 125 ng/mL, the concentration at 1 h ([2]; human, plasma ultrafiltrate (unbound level in EDTA plasma), 1 h post-dose, n = 20, mean ± SD, read-out: C1 concentration) was 149 ± 146 ng/mL and the concentration at 2 h ([2]; human, plasma ultrafiltrate (unbound level in EDTA plasma), 2 h post-dose, n = 20, mean ± SD, read-out: C2 concentration) was 49 ± 41 ng/mL. For the same compound, the concentration at 4 h ([2]; human, plasma ultrafiltrate (unbound level in EDTA plasma), 4 h post-dose, n = 20, mean ± SD, read-out: C4 concentration) was 31 ± 50 ng/mL, the Cmax ([2]; human, plasma ultrafiltrate (unbound level in EDTA plasma), pediatric renal transplant recipients (n = 20) on MMF (CellCept), steady state, 0–4 h post-dose, mean (range), read-out: Cmax) was 160 ng/mL and the AUC(0-t) ([2]; human, plasma ultrafiltrate (unbound level in EDTA plasma), pediatric renal transplant recipients (n = 20) on MMF, mean (range)) was 0.276 mg·h/L. The Tmax ([2]; human, plasma ultrafiltrate (unbound level in EDTA plasma), pediatric renal transplant recipients (n = 20) on MMF, mean (range), read-out: Tmax) was 54 min, the concentration at 0 h ([3]; human, unstimulated, Salivette, wet saliva, 0 h (pre-dose), n = 20, mean ± SD, read-out: C0 concentration) was 8.24 ± 5.66 ng/mL and the concentration at 0.5 h ([3]; human, unstimulated, Salivette, wet saliva, 0.5 h post-dose, n = 20, mean ± SD, read-out: C0.5 concentration) was 27.2 ± 7.86 ng/mL. It also gave a concentration at 1 h ([3]; human, unstimulated, Salivette, wet saliva, 1 h post-dose, n = 20, mean ± SD, read-out: C1 concentration) of 51.6 ± 45.8 ng/mL, a concentration at 2 h ([3]; human, unstimulated, Salivette, wet saliva, 2 h post-dose, n = 20, mean ± SD, read-out: C2 concentration) of 17.7 ± 16.1 ng/mL and a concentration at 4 h ([3]; human, unstimulated, Salivette, wet saliva, 4 h post-dose, n = 20, mean ± SD, read-out: C4 concentration) of 8 ± 9.49 ng/mL. For the same compound, the AUC(0-t) ([3]; human, unstimulated, Salivette, wet saliva, pediatric renal transplant recipients (n = 20) on MMF, mean (range)) was 107 ng·h/mL, the Tmax ([3]; human, unstimulated, Salivette, wet saliva, pediatric renal transplant recipients (n = 20) on MMF, mean (range), read-out: Tmax) was 51 min and the Cmax ([3]; human, wet saliva (unstimulated, Salivette), pediatric renal transplant recipients (n = 20) on MMF, 0–4 h post-dose, mean (range), read-out: Cmax) was 83.5 ng/mL. For the same compound, the “AUC(0–4) Normalized to Drug Dose” value ([3]; wet saliva, normalized to MMF dose, n = 20, mean (range)) was 300.18 (32.29–2716.80) ^c µg × h/mL × g, the “AUC(0–4) Normalized to Drug Dose” value ([4]; dried saliva (Mitra VAMS), normalized to MMF dose, n = 20, mean (range)) was 305.78 (33.88–2937.03) ^c µg × h/mL × g and the Cmax ([4]; human, dried saliva (Mitra VAMS 20 µL), pediatric renal transplant recipients (n = 20) on MMF, 0–4 h post-dose, mean (range), read-out: Cmax) was 84.1 ng/mL. It also gave a concentration at 0 h ([4]; human, dried saliva (Mitra VAMS), 0 h (pre-dose), n = 20, mean ± SD, read-out: C0 concentration) of 7.54 ± 4.89 ng/mL, a concentration at 0.5 h ([4]; human, dried saliva (Mitra VAMS), 0.5 h post-dose, n = 20, mean ± SD, read-out: C0.5 concentration) of 27.7 ± 9.14 ng/mL and a concentration at 1 h ([4]; human, dried saliva (Mitra VAMS), 1 h post-dose, n = 20, mean ± SD, read-out: C1 concentration) of 52.2 ± 40.9 ng/mL. The concentration at 2 h ([4]; human, dried saliva (Mitra VAMS), 2 h post-dose, n = 20, mean ± SD, read-out: C2 concentration) was 17.1 ± 16.7 ng/mL, the concentration at 4 h ([4]; human, dried saliva (Mitra VAMS), 4 h post-dose, n = 20, mean ± SD, read-out: C4 concentration) was 7.25 ± 8.03 ng/mL and the Tmax ([4]; human, dried saliva (Mitra VAMS), pediatric renal transplant recipients (n = 20) on MMF, mean (range), read-out: Tmax) was 51 min. The concentration at 0 h [5, 6] was 1800 ± 1300 ng/mL, the concentration at 0.5 h [5, 7] was 9660 ± 8960 ng/mL and the concentration at 1 h [5, 8] was 10100 ± 5970 ng/mL. It also gave a concentration at 2 h [5, 9] of 4430 ± 3000 ng/mL, a concentration at 4 h [5, 10] of 1770 ± 2010 ng/mL and an AUC(0-t) ([5]; human, corrected to estimated capillary plasma concentration, n = 20, mean (range)) of 21400 ng·h/mL. For the same compound, the Cmax ([5]; human, corrected to estimated capillary plasma concentration, pediatric renal transplant recipients (n = 20) on MMF, mean (range), read-out: Cmax) was 12900 ng/mL, the Tmax ([5]; human, pediatric renal transplant recipients (n = 20) on MMF, mean (range), read-out: Tmax) was 46.8 min and the “AUC(0–4) Normalized to Drug Dose” value [5, 11] was 68.95 (20.71–444.79) ^d mg × h/mL × g.
